The results in this text go back to ChEMBL document CHEMBL3046323, “Photosynthetic Electron Transport Inhibitory and Herbicidal Activities of 2-(N-Acylbenzylamino)-4-methyl-6-fluoroalkyl-1, 3, 5-triazine Derivatives” (J Pestic Sci, 2001).

In assay [1] the test system is Amaranthus blitum subsp. oleraceus. In words: Herbicidal activity against Amaranthus blitum subsp. Oleraceus at 4 kg/ha treated as soil application at pre-emergence after 3 weeks. It is filed as functional.
The test system of assay [2] is Chenopodium album. In words: Herbicidal activity against Chenopodium album at 4 kg/ha treated as soil application at pre-emergence after 3 weeks. It is filed as functional.
For assay [3], the system named is Echinochloa crus-galli var. crus-galli. Kind of assay: Herbicidal activity against Echinochloa crus-galli var. crus-galli at 4 kg/ha treated as soil application at pre-emergence after 3 weeks. The assay is classed as functional.
Assay [4] concerns Digitaria ciliaris. In words: Herbicidal activity against Digitaria ciliaris at 4 kg/ha treated as soil application at pre-emergence after 3 weeks. The assay is classed as functional.
For assay [5], the system named is Persicaria longiseta. Kind of assay: Herbicidal activity against Persicaria longiseta at 4 kg/ha treated as paddy application at pre-emergence after 3 weeks. It is filed as functional.
Assay [6] concerns Chenopodium album. Kind of assay: Herbicidal activity against Chenopodium album at 4 kg/ha treated as paddy application at pre-emergence after 3 weeks. It is filed as functional.
The test system of assay [7] is Digitaria ciliaris. Kind of assay: Herbicidal activity against Digitaria ciliaris at 4 kg/ha treated as paddy application at pre-emergence after 3 weeks. It is filed as functional.
Assay [8] concerns Echinochloa crus-galli var. crus-galli. Kind of assay: Herbicidal activity against Echinochloa crus-galli var. crus-galli at 4 kg/ha treated as paddy application at pre-emergence after 3 weeks. It is filed as functional.
Assay [9] relates to Pontederia vaginalis. Kind of assay: Herbicidal activity against Monochoria vaginalis at 4 kg/ha treated as foliar application at post-emergence after 3 weeks. It is filed as functional.
Assay [10] has as its system Schoenoplectiella juncoides. Kind of assay: Herbicidal activity against Schoenoplectiella juncoides var. Hotarui Ohwi at 4 kg/ha treated as foliar application at post-emergence after 3 weeks. It is filed as functional.
In assay [11] the test system is Echinochloa oryzicola. Kind of assay: Herbicidal activity against Echinochloa oryzicola at 4 kg/ha treated as foliar application at post-emergence after 3 weeks. It is filed as functional.
The subject of assay [12] is Persicaria longiseta. In words: Herbicidal activity against Persicaria longiseta at 4 kg/ha treated as soil application at pre-emergence after 3 weeks. It is filed as functional.
For assay [13], the system named is Rotala indica. In words: Herbicidal activity against Rotala indica at 4 kg/ha treated as foliar application at post-emergence after 3 weeks. It is filed as functional.
The nature of assay [14]: Inhibition of photosynthetic electron transport in Spinacia oleracea leaf thylakoids assessed as oxygen formation.

`CCC(=O)N(Cc1ccccc1)c1nc(C)nc(C(F)(F)F)n1`: the Activity in assay [1] was 91%; in assay [2], 91%; in assay [3], 76%; in assay [4] it was 91%; in assay [5], 100%; in [6], 100%. Besides, the Activity worked out at 76% in assay [7]; 76% in assay [8]; 26% in assay [9]; 0% in [10]; 0% in assay [11]; 91% in assay [12].
Turning to `Cc1nc(NCc2ccc(Cl)cc2)nc(C(F)(F)F)n1`, the Activity in [2] was 100%; in [3], 100%; in assay [4], 100%; in assay [5] it was 91%; in [6], 91%; in assay [7], 100%. In addition, the Activity in assay [8] is listed as 100%; in assay [9], 100%; in [13], 91%; in assay [10], 100%; in [11], 91%. In [14], the pI50 was 6.97.
As to `Cc1nc(NCc2ccccc2)nc(C(F)(F)F)n1`, the Activity is listed as 100% in assay [2]; 76% in assay [3]; 91% in [4]; 76% in assay [5]; 76% in assay [6]; 91% in assay [7]. For the same compound, the Activity in [8] is listed as 100%; in assay [9] it was 91%; in [13], 76%; in [10] it was 91%; in assay [11], 76%.
In the case of `Cc1nc(NCc2ccc(Cl)cc2)nc(C(F)F)n1`, the pI50 in [14] came out at 6.62.
For the compound `CCCc1nc(C)nc(N(C=O)Cc2ccc(Cl)cc2)n1`, the Activity in assay [1] was 76%; in assay [2] it was 91%; in assay [3], 51%; in assay [4] it was 91%; in [5], 100%; in [6], 100%. The Activity worked out at 1% in assay [7]; 100% in assay [8]; 76% in assay [9]; 100% in assay [13]; 1% in [10]; 0% in [11]. The same compound returned an Activity in assay [12] of 100%.
In the case of `Cc1nc(N(C=O)Cc2ccccc2)nc(C(F)(F)F)n1`, the Activity in [1] is 76%; in assay [2], 100%; in assay [3], 76%; in assay [4], 76%; in assay [5], 100%; in assay [6], 100%. In addition, the Activity in [7] came to 76%; in [8], 76%; in assay [9], 26%; in [10] it was 0%; in [11], 0%; in [12], 91%.
`CC(=O)N(Cc1ccccc1)c1nc(C)nc(C(F)(F)F)n1`: the Activity is recorded as 100% in [2]; 0% in assay [3]; 1% in assay [4]; 51% in [5]; 100% in assay [6]; 0% in assay [7]. Moreover, the Activity in assay [8] was 76%; in [9], 100%; in [10] it was 100%; in assay [11] it was 100%.
Turning to `CCCC(=O)N(Cc1ccccc1)c1nc(C)nc(C(F)(F)F)n1`, the Activity was determined as 76% in [1]; 76% in [2]; 51% in [3]; 51% in [4]; 1% in assay [5]; 100% in assay [6]. Moreover, the Activity came to 51% in assay [7]; 100% in assay [8]; 51% in assay [9]; 26% in assay [13]; 0% in [10]; 0% in assay [11]. Besides, the Activity in assay [12] is given as 51%.
Take `Cc1nc(N(Cc2ccccc2)C(=O)C(C)(C)C)nc(C(F)(F)F)n1`: the Activity in assay [3] is given as 26%; in [4], 51%.
As for `Cc1nc(C(F)F)nc(N(C=O)Cc2ccc(Cl)cc2)n1`, the Activity amounted to 100% in [1]; 100% in [2]; 100% in assay [3]; 91% in assay [4]; 100% in [5]; 100% in [6]. Also, the Activity was 76% in assay [7]; 76% in [8]; 100% in [9]; 100% in [13]; 76% in [10]; 91% in [11]. In addition, the Activity in assay [12] was found to be 100%.
For the compound `Cc1nc(N(C=O)Cc2ccc(Cl)cc2)nc(C(F)(F)F)n1`, the Activity in assay [1] was 91%; in assay [2] it was 100%; in assay [3], 100%; in [4] it was 91%; in assay [5], 100%; in assay [6] it was 100%. The Activity in [7] was 91%; in assay [8] it was 100%; in assay [9] it was 100%; in assay [13], 100%; in [10], 91%; in [11], 91%. The same compound yielded an Activity in assay [12] of 100%.
As to `Cc1nc(N(C=O)Cc2ccc(Cl)cc2)nc(C(F)(F)C(F)(F)F)n1`, the Activity in [1] came to 100%; in [2] it was 91%; in [3] it was 100%; in assay [4], 100%; in [5], 100%; in assay [6], 100%. Moreover, the Activity in assay [7] stood at 76%; in [8], 100%; in assay [9], 100%; in assay [13], 100%; in [10], 100%; in assay [11] it was 76%. The compound also yielded an Activity in assay [12] of 100%.
As for `CCNc1nc(Cl)nc(NC(C)C)n1` [ATRAZINE], the Activity turned out to be 91% in assay [5]; 91% in [6]; 100% in assay [9]; 76% in assay [10]; 91% in assay [11].
Consider `CCNc1nc(Cl)nc(NCC)n1` [SIMAZINE], for which the Activity is given as 91% in assay [1], 91% in assay [2], 26% in assay [3] and 51% in [4]. The pI50 in [14] came out at 6.28.
